Source: patent US10568890B2 (Xi'An Libang Pharmaceutical Co., Ltd, priority 2012, dated 2020)
≈ marks a conversion by molar mass, not a printed value.

Columns and labels:
[1] = Test of miscibility of formulae in vitro; format: physicochemical
Description: Ethyl lactate was mixed with ethyl oleate, glycerol triacetate, benzyl benzoate, castor oil, sesame oil, soybean oil, corn oil and olive oil respectively for miscibility, and then the conditions of miscibility were observed. Specifically, 1) adding 0.50 ml of ethyl lactate for each one into eight vials of 7 ml each, and then adding 0.50 ml of ethyl oleate, glycerol triacetate, benzyl benzoate, castor oil, sesame oil, soybean oil, corn oil and olive oil thereto respectively; swirl them for 5 min to be mixed uniformly, followed by standing for 10 min, and then observing and recording the conditions of miscibility of various solvents; 2) adding 0.30 ml of sesame oil, soybean oil, corn oil, olive oil, ethyl oleate, glycerol triacetate and benzyl benzoate respectively into seven vials of 7 ml each; and then adding 0.30 ml of castor oil and 0.30 ml of ethyl lactate thereto; swirl them for 5 min to be mixed uniformly, followed by standing for 10 min; and then observing and recording the conditions of miscibility of various solvents.

[2] = tested on: advanced breast cancer patients (postmenopausal); conditions: after treatment failure of first-line non-steroid drugs; cited from earlier work
[3] = Solubility test of fulvestrant in some solvents; format: physicochemical; conditions: 25° C.
Description: If it was dissolved completely, the addition of the drug was resumed to reach a saturated state. Nitrogen was introduced, and the vials were kept airtight and free of light for 1-2 days to reach a dissolution-precipitation balance.

Row | miscibility of ethyl lactate ([1]; with benzyl benzoate, 0.50 ml each) | miscibility of ethyl lactate ([1]; with castor oil, 0.50 ml each) | miscibility of ethyl lactate ([1]; with corn oil, 0.50 ml each) | miscibility of ethyl lactate ([1]; with ethyl oleate, 0.50 ml each) | miscibility of ethyl lactate ([1]; with glycerol triacetate, 0.50 ml each) | miscibility of ethyl lactate ([1]; with mixed oil 1 (1:1 ethyl oleate and castor oil)) | miscibility of ethyl lactate ([1]; with mixed oil 2 (1:1 benzyl benzoate and castor oil)) | miscibility of ethyl lactate ([1]; with mixed oil 3 (1:1 glycerol triacetate and castor oil)) | miscibility of ethyl lactate ([1]; with mixed oil 4 (1:1 sesame oil and castor oil)) | miscibility of ethyl lactate ([1]; with mixed oil 5 (1:1 corn oil and castor oil)) | miscibility of ethyl lactate ([1]; with mixed oil 6 (1:1 olive oil and castor oil)) | miscibility of ethyl lactate ([1]; with mixed oil 7 (1:1 soybean oil and castor oil)) | miscibility of ethyl lactate ([1]; with olive oil, 0.50 ml each) | miscibility of ethyl lactate ([1]; with sesame oil, 0.50 ml each) | miscibility of ethyl lactate ([1]; with soybean oil, 0.50 ml each) | Solubility ([3]; in benzyl propionate) [mg/mL] | Solubility ([3]; in isopentyl acetate) [mg/mL] | SMILES | overall response rate [2] [%]
1 | miscible | miscible | immiscible | miscible | miscible | miscible | miscible | miscible | miscible | miscible | miscible | miscible | immiscible | immiscible | immiscible |  |  | CCOC(=O)C(C)O (stereo not drawn) [ethyl lactate, ethyl α-hydroxylpropionate] | 
2 |  |  |  |  |  |  |  |  |  |  |  |  |  |  |  |  |  | C=C1C[C@@H]2[C@H](CC[C@]3(C)C(=O)CC[C@@H]23)[C@@]2(C)C=CC(=O)C=C12 [exemestane] | 28
3 |  |  |  |  |  |  |  |  |  |  |  |  |  |  |  | 4.34 (≈ 7.15 mM) | 50.98 (≈ 84 mM) | C[C@]12CC[C@@H]3c4ccc(O)cc4C[C@@H](CCCCCCCCC[S+]([O-])CCCC(F)(F)C(F)(F)F)[C@H]3[C@@H]1CC[C@@H]2O (stereo partly shown) [fulvestrant] | 37
